Measurements: patent US20060135589A1, “1h-Indazole-3-carboxamide compounds as cyclin dependent kinase (cdk) inhibitors” (Astex Technology, Inc., priority 2002, published 2006)

Target: T1, CDK2/CyclinA (Homo sapiens, UniProt P24941)
T1 construct: purchased Upstate Biotechnology
Experiment: Measurement of CDK2 kinase inhibitory activity (IC50), 33P-ATP / histone H1 filter assay
Assay type: biochemical
Procedure: Measurement of CDK2 Kinase Inhibitory Activity (IC50)
Compounds of the invention were tested for kinase inhibitory activity using the following protocol.
1.7 μl of active CDK2/CyclinA (Upstate Biotechnology, 10 U/μl) is diluted in assay buffer (250 μl of 10× strength assay buffer (200 mM MOPS pH 7.2, 250 mM β-glycerophosphate, 50 mM EDTA, 150 mM MgCl2), 11.27 μl 10 mM ATP, 2.5 μl 1M DTT, 25 μl 100 mM sodium orthovanadate, 708.53 μl H2O), and 10 μl mixed with 10 μl of histone substrate mix (60 μl bovine histone H1 (Upstate Biotechnology, 5 mg/ml), 940 μl H2O, 35 μCi γ^33P-ATP) and added to 96 well plates along with 5 μl of various dilutions of the test compound in DMSO (up to 2.5%). The reaction is allowed to proceed for 5 hours before being stopped with an excess of ortho-phosphoric acid (30 μl at 2%).
γ^33P-ATP which remains unincorporated into the histone H1 is separated from phosphorylated histone H1 on a Millipore MAPH filter plate. The wells of the MAPH plate are wetted with 0.5% orthophosphoric acid, and then the results of the reaction are filtered with a Millipore vacuum filtration unit through the wells. Following filtration, the residue is washed twice with 200 μl of 0.5% orthophosphoric acid. Once the filters have dried, 25 μl of Microscint 20 scintillant is added, and then counted on a Packard Topcount for 30 seconds.

| SMILES | inhibition at 50 µM [%] |
| --- | --- |
| CC(=O)NCc1ccc(NC(=O)c2n[nH]c3ccc(Cl)cc23)cc1 [Example 65, 5-Chloro-1H-indazole-3-carboxylic acid [4-(acetylamino-methyl)-phenyl]-amide] | ≥ 50 |
| O=C(NC1CCN(C(=O)C(F)(F)F)CC1)c1n[nH]c2ccccc12 [Example 66, 1H-Indazole-3-carboxylic acid [1-(2,2,2 trifluoro-acetyl)-Piperidin-4-yl]-amide] | ≥ 50 |
| O=C(NC1CCNCC1)c1n[nH]c2ccccc12 [Example 67, 1H-Indazole-3-carboxylic acid piperidin-4-ylamide] | ≥ 50 |
| CC(=O)N1CCC(NC(=O)c2n[nH]c3ccccc23)CC1 [Example 68, 1H-Indazole-3-carboxylic acid (1-acetyl-piperidin-4-yl)-amide] | ≥ 50 |
| CS(=O)(=O)N1CCC(NC(=O)c2n[nH]c3ccccc23)CC1 [Example 69, 1H-Indazole-3-carboxylic acid (1-methanesulphonyl-piperidin-4-yl)-amide] | ≥ 50 |
| O=C(Nc1ccc(F)cc1)c1n[nH]c2ccccc12 [Example 70, 1H-Indazole-3-carboxylic acid (4-fluoro-phenyl)-amide] | ≥ 50 |
| O=C(Nc1ccc(F)cc1)c1n[nH]c2cccc(Br)c12 [Example 71, 4-Bromo-1H-indazole-3-carboxylic acid (4-fluoro-phenyl)-amide] | ≥ 50 |
| Cc1ccc2[nH]nc(C(=O)Nc3ccc(F)cc3)c2c1 [Example 72, 5-Methyl-1H-indazole-3-carboxylic acid (4-fluoro-phenyl)-amide] | ≥ 50 |
| O=C(Nc1ccc(F)cc1)c1n[nH]c2cc(Br)ccc12 [Example 73, 6-Bromo-1H-indazole-3-carboxylic acid (4-fluoro-phenyl)-amide] | ≥ 50 |

The next lines start with the values.

| inhibition at 50 µM [%] | SMILES |
| --- | --- |
| ≥ 50 | O=C(Nc1ccc(N2CCOCC2)cc1)c1n[nH]c2ccc(Cl)cc12 [Example 74] |
| ≥ 50 | O=C(Nc1cccc(-c2nnn[nH]2)c1)c1n[nH]c2ccc(Cl)cc12 [Example 75] |
| ≥ 50 | CS(=O)(=O)c1cccc(NC(=O)c2n[nH]c3ccc([N+](=O)[O-])cc23)c1 [Example 78] |
| ≥ 50 | O=C(Nc1ccccc1)c1n[nH]c2ccc(F)cc12 [Example 80] |
| ≥ 50 | COC(=O)N1CCC(NC(=O)c2n[nH]c3ccc(Cl)cc23)C1 (stereo not drawn) [Example 81, 3-[(5-Chloro-1H-indazole-3-carbonyl)-amino]-pyrrolidine-1-carboxylic acid methyl ester] |
| ≥ 50 | O=C(Nc1ccccc1)c1n[nH]c2ccc(N3CCCC3)cc12 [Example 84, 5-pyrrolidin-1-yl-1H-indazole-3-carboxylic acid phenylamide] |
| ≥ 50 | O=C(Nc1ccccc1)c1n[nH]c2ccc(-c3ccccc3-c3ccccc3)cc12 [Example 85, 5-Biphenyl-2-yl-1H-indazole-3-carboxylic acid phenylamide] |
| ≥ 50 | O=C(Nc1ccccc1)c1n[nH]c2ccc(N3CCCS3(=O)=O)cc12 [Example 86, 5-(1,1-Dioxo-1lambda*6*-isothiazolidin-2-yl)-1H-indazole-3-carboxylic acid phenylamide] |
| ≥ 50 | O=C(Nc1ccccc1)c1n[nH]c2ccc(CCc3ccccc3)cc12 [Example 87, 5-Phenethyl-1H-indazole-3-carboxylic acid phenylamide] |
